Reference: patent US9458194B2, “Compounds useful in the treatment and/or care of the skin and their cosmetic or pharmaceutical compositions” (Lubrizol Advanced Materials, Inc., priority 2013, dated 2016)
Values joined by “and” are separate entries in the source; they are usually repeats but may differ in a detail not shown here. Identical values can stand only once.

Columns and labels:
Assay type in all cases: cell-based
fibulin-5 = test: Immunofluorescence of fibulin-5 protein expression in human dermal fibroblasts; details: 0.5 mg/mL, 48 hours, HDFa
Description: In this experiment the number of times that the expression of the proteins fibulin-5 and LOXL1 in human dermal fibroblasts is increased with regard to the basal levels in untreated cells (negative control) when treating the cells with 0.5 mg/ml of the product Ac-L-Asp-L-Val-L-Lys-L-Tyr-OH and it is compared with the effect of Interleukin-1β (IL-1β) at 20 ng/ml and TGF-β at 5 ng/ml (positive controls), which increase an average of 1.5 times and 2 times, respectively, the expression of these proteins, in the same conditions.
Adult human dermal fibroblasts were seeded (HDFa) (2.5×10^3 cells/well) in a 96-well transparent plate, treated with polylysine, and were incubated in complete medium 106 for 72 hours at 37° C. in an atmosphere with 5% CO2. After the incubation, the cells were treated with the different compounds in complete medium 106 for 48 hours at 37° C. in an atmosphere with 5% CO2. As positive controls of increase of the expression of the proteins fibulin-5 and LOXL1, 5 ng/ml of TGF-β and 20 ng/ml of IL-1β were used and as a negative control untreated cells were used, just with complete medium 106. The incubations and the treatments were carried out in quadruplicate for each condition. After the treatment, the levels of expression of both proteins were quantified relatively by using specific fluorescent antibodies, photographic recording by microscopy and subsequent quantification of the fluorescent signal using image processing software, the number of total cells by fluorescent staining of the nuclei (DAPI) and subsequent quantification in the same images. For the determination of the expression of the proteins fibulin-5 and LOXL1 the cells were washed with PBS 48 hours after the treatments and were fixed with paraformaldehyde. Next, duplicates of each treatment were used to mark separately the fibulin-5 and LOXL1 proteins. For each of the proteins a specific primary monoclonal antibody was used (Abcam). After the primary incubation, the cells were washed with PBS and the secondary marking was carried out with specific fluorescent polyclonal antibodies for each primary antibody. For fibulin-5 an Alexa Fluor® 594 (red) secondary antibody was used and for LOXL1 an Alexa Fluor® 488 (green) secondary antibody was used. 16 hours later all the samples were stained with DAPI (4′,6-Diamidino-2-Phenylindole), fluorescent marker for the staining of nuclei, and the photographic recording was carried out by fluorescence microscopy in a Leica microscope. 2-4 images were taken per condition and per protein and the fluorescent signals were quantified (IOD) corresponding to each protein and the nuclei by means of image analysis software. The fibulin-5 and LOXL1 signals were normalized according to the number of total nuclei for each image. 3 independent assays were carried out.

type-I collagen = test: Type-I collagen synthesis in human dermal fibroblasts (ELISA); details: 0.01 μg/ml, 48 hours, vs negative control
Description: Stimulation of type-I collagen synthesis induced by cosmetic active ingredients was assessed by means of an ELISA (Enzyme-Linked Immunosorbent Assay) method.
Human dermal fibroblasts were trypsinized and seeded at a density of 5×10^4 cells/well in 48-well plates. After 24 hours of incubation at 37° C., 5% CO2, with a humidified atmosphere, a new medium was added with 0.01 μg/mL Ac-L-Asp-L-Val-L-Lys-L-Tyr-OH. Untreated cells were used as negative controls. The cells were incubated for an additional 48 hours at 37° C., 5% CO2, with humidified atmosphere. Subsequently, the medium was collected from each well to be analyzed by ELISA. A calibration curve with type-I collagen was prepared (Sigma) and the dilutions of this calibration curve were transferred to 96-well plates together with the mediums collected from the cells. The plates were left at 4° C. in a humid atmosphere for one night. Next the wells were washed three times with a washing solution prepared with PBS at 0.05% of Tween-20 (Sigma) and then any non-specific binding of the primary antibody with a solution of PBS at 3% BSA (sigma) was blocked. […] The reaction was stopped adding a solution of H2SO4 3 M and the absorbency reading was carried out at a wave length of 490 nm in a TECAN GENios spectrophotometric reader. […]

[1] = tested on: human dermal fibroblasts (HDFa); test: Gene expression profile of human dermal fibroblasts (microarray, GSEA); details: 0.05 mg/ml, 24 hours
Description: Adult human dermal fibroblasts (HDFa) were seeded (12.5×10^4 cells/vial T25 cm^2), and were incubated in complete medium 106 for 7 days at 37° C. in an atmosphere with 5% CO2. After the incubation, the cells were treated for 24 hours at 37° C. in an atmosphere with 5% CO2 with 0.05 mg/ml of the compound Ac-L-Asp-L-Val-L-Lys-L-Tyr-OH in complete medium 106 or in complete medium 106 as a negative control. The incubations and the treatments were carried out in duplicate for each condition.
After the treatments, RNA was extracted and purified, the quality and quantity was verified and the marking was carried out as was the hybridization of the samples in a human gene expression microarray (ASurePrint G3, Agilent). […] Next an evaluation of the genes by means of GSEA was carried out to encompass these genes according to their function/biological route. 24 hours after the treatments, the cells were lysed and the RNA was extracted and purified from each replica and each condition by means of the RNeasyPlus Mini kit by Qiagen. The lysed cells were briefly homogenized and the RNases were inactivated. The samples were passed through special RNA binding columns and after several microcentrifugation washes to eliminate contaminants and impurities, the purified RNA was eluted with 50 μl of ultrapure water. The purity, integrity and concentration of the RNA obtained were evaluated by means of spectrophotometry (Nanodrop) and with a bioanalyzer (Agilent Bioanalyzer).
The normalized values obtained with the treatment were compared with the normalized values obtained with the negative control to obtain genes with differential expression. […] The values obtained are also evaluated by means of GSEA (Gene Set Analysis Enrichment) to group together the genes with differential expression in terms of Gene Ontology and Biological Routes and the sets of genes with an expected proportion of incorrectly rejected null hypotheses were selected as significant (FDR) <25%. The results obtained are shown below in three different tables in which different families of genes are grouped together (collagen genes, genes involved in collagen synthesis and genes involved in cell adhesion).

Q: For “Ac-L-Asp-L-Val-L-Lys-L-Tyr-OH (Ac-DVKY-OH)”, which “Increase in the expression of the protein fibulin-5 with regard to the negative control” value (fibulin-5) is on record?
A: The value was 134% and 133.90%.

Q: What about the “INCREASE IN SYNTHESIS OF TYPE-I COLLAGEN” value (type-I collagen) of the same substance?
A: Its value is 47.3%.

Q: And the “% Expression induction” value ([1]; ACTN1 (Actinin, alpha 1))?
A: Its value is 27.4%.

Q: And the “% Expression induction” value ([1]; CAPNS1 (Calpain, small subunit 1))?
A: Its value is 22.1%.

Q: And the “% Expression induction” value ([1]; CAPNS2 (Calpain, small subunit 2))?
A: Its value is 17.9%.

Q: And the “% Expression induction” value ([1]; COL1A2 (Collagen, type-I, alpha 2))?
A: Its value is 31.1%.

Q: And the “% Expression induction” value ([1]; COL4A1 (Collagen, type-IV, alpha 1))?
A: The value was 18.9%.

Q: What about the “% Expression induction” value ([1]; COL4A2 (Collagen, type-IV, alpha 2)) of the same substance?
A: Its value is 8.3%.

Q: What about the “% Expression induction” value ([1]; COL6A2 (Collagen, type-VI, alpha 2)) of the same substance?
A: The value was 16.0%.

Q: What about the “% Expression induction” value ([1]; COL6A3 (Collagen, type-VI, alpha 3)) of the same substance?
A: Its value is 18.6%.

Q: And the “% Expression induction” value ([1]; COL11A1 (Collagen, type-XI, alpha 1))?
A: Its value is 7.2%.

Q: And the “% Expression induction” value ([1]; COL14A1 (Collagen, type-XIV, alpha 1))?
A: The value was 36.1%.

Q: And the “% Expression induction” value ([1]; COL22A1 (Collagen, type-XXII, alpha 1))?
A: The value was 7.7%.

Q: What about the “% Expression induction” value ([1]; COL27A1 (Collagen, type-XXVII, alpha 1)) of the same substance?
A: The value was 14.2%.

Q: What about the “% Expression induction” value ([1]; GSN (Gelsolin)) of the same substance?
A: The value was 30.1%.

Q: And the “% Expression induction” value ([1]; ITGB1 (Integrin, beta 1))?
A: Its value is 33.0%.

Q: And the “% Expression induction” value ([1]; PCOLCE (Procollagen C-endopeptidase enhancer))?
A: Its value is 22.4%.

Q: And the “% Expression induction” value ([1]; PFN1 (Profilin 1))?
A: Its value is 36.8%.

Q: And the “% Expression induction” value ([1]; PLOD3 (Procollagen-lysine, 2-oxoglutarate 5-dioxygenase 3))?
A: Its value is 20.7%.

Q: And the “% Expression induction” value ([1]; ROCK1 (Rho-associated, coiled-coil containing protein kinase 1))?
A: Its value is 22.7%.

Q: What about the “% Expression induction” value ([1]; SERPINH1 (heat shock protein 47)) of the same substance?
A: Its value is 25.3%.

Q: And the “% Expression induction” value ([1]; TLN1 (Talin 1))?
A: Its value is 27.5%.

Q: What about the “% Expression induction” value ([1]; VCL (Vinculin)) of the same substance?
A: Its value is 4.2%.

Q: What about the “% Expression induction” value ([1]; ZYX (Zyxin)) of the same substance?
A: Its value is 35.7%.
